Assay results reported in patent publication US20210330611A1, “THERAPY FOR NEUROLOGICAL DISEASES/DISORDERS” (priority 2020, published 2021).
Like-named read-outs stand apart in the source and are kept apart here.

Key:
intracellular GSH = type: cell-based, mouse
Experimental: Real-time imaging of glutathione. The real-time GSH dynamics in living BMDMs was determined with the fluorescent GSH probe, RealThiol RT-AM as described (37). Cells were plated on 2-well chamber slide (Nunc) pre-coated with 25 μg/ml fibrin. Cells were stimulated with fibrin with or without 5 μM acivicin or GGsTop. The GSH synthesis inhibitor, buthionine sulfoximine (BSO, Sigma-Aldrich) was used as positive control for reducing intracellular GSH levels at 100 μM. After 24 h incubation, cells were loaded with 1 μM RT-AM probe and were incubated for 5 min before imaging. The cells were kept at 37° C. during the entire experiment. […] For each independent experiment, laser power and detector settings were set using the control/untreated cells incubated with RT-AM alone as reference. All settings were kept constant throughout the experiment. […] The ratio calculated for each treatment was expressed as percentage from that of the untreated cells (control).

[1] = tested on: LPS-induced microglia activation; assay: Image-based assay of LPS-induced microglia activation (HTS and dose response); type: cell-based, rat
adoptive transfer EAE = assay: Adoptive transfer EAE induced by PLP139-151-specific T cells, clinical scores; type: in vivo, mouse; conditions: prophylactic, 5 mg/kg daily from day 0, FIG. 7d
GGT = GGT activity in substantia nigra after stereotactic LPS injection; type: in vivo, mouse; conditions: 5 mg/kg i.p., 12 h after LPS, FIG. 15a
Experimental: (§1) Stereotactic LPS injection and drug treatment. Mice were anaesthetized with isoflurane and placed in a stereotactic apparatus (David Kopf Instruments). LPS (Sigma-Aldrich) was dissolved in endotoxin-free distilled water (HyClone) and was diluted to 1 μg/ml with PBS. LPS (2 μl of 1 μg/ml) or PBS was slowly injected (0.3 μl/min) using a 10-μl Hamilton syringe attached to a 33-G needle into the substantia nigra at coordinates (anteroposterior, 3.0 mm; mediolateral, 1.3 mm; dorsoventral, 4.7 mm from the bregma, according to Paxinos and Watson) Animals received acivicin (5 mg/kg) or saline intraperitoneally beginning 5 days before LPS injection and for 7 days after LPS injection. After 12 h of the LPS injection, the substantia nigra area was immediately collected on ice and kept at −80° C. for later analysis of GGT activity. After 7 d of the LPS injection, mice were perfused with 4% PFA, and the brains were post-fixed in 4% PFA overnight at 4° C. […] Images were acquired with all-in-one BZ-X700 fluorescence microscope. Images were quantified using NIH ImageJ (version 1.50) by blinded observers.

[2] = Serum protein carbonyl content assay in MOG35-55 EAE mice; type: in vivo, mouse; conditions: FIG. 7g
Experimental: Protein carbonyl content assay. Blood was isolated from EAE mice via terminal cardiac puncture, and serum levels of protein carbonylation were measured with OxiSelect™ Protein Carbonyl ELISA (Cell Biolabs) according to the manufacturer's protocol. The absorbance at 450 nm was measured using a SpectraMax M5 microplate reader (Molecular Devices) with SoftMax Pro 5.2 software (Phoenix Technologies Ltd.).

chronic NOD MOG35-55 EAE = assay: Immunohistochemistry of spinal cord in chronic NOD MOG35-55 EAE; type: in vivo, mouse
MOG35-55 EAE = assay: Immunohistochemistry of spinal cord lesions in MOG35-55 EAE mice; type: in vivo, mouse
[3] = tested on: LPS injection in the substantia nigra; assay: LPS-induced neurodegeneration in substantia nigra, TH and Iba-1 immunohistochemistry; type: in vivo, mouse
Experimental: as §1

N[C@H](C(=O)O)[C@@H]1CC(Cl)=NO1 [Acivicin, (2S)-2-amino-2-[(5S)-3-chloro-4,5-dihydro-1,2-oxazol-5-yl] acetic acid]
fibrin-induced degradation of glutathione (RealThiol F405/F488) (intracellular GSH): inhibited
IC50 ([1]; Rattus norvegicus, Microglia, 48 h, Table 1, dose response 0.001-20 μM, triplicates, primary rat microglia, 48 h, read-out: LPS IC50): 1 µM
inhibition at 10 µM ([1]; Rattus norvegicus, Microglia, 48 h, primary microglia HTS, LPS stimulation, increased cell size (>800 μm^2) as marker of activation, read-out: LPS % inhibition): 93%
IC50 ([1]; Rattus norvegicus, Microglia, LPS-induced microglia activation, dose response, read-out: LPS IC50 (uM) (Suppl. Table 7)): 1 µM
IC50 ([1]; Rattus norvegicus, Microglia, Table 7, read-out: LPS_IC50): 1.66 µM
IC50 ([1]; Rattus norvegicus, Microglia, dose response, LPS-induced microglia activation, read-out: LPS IC50): 1 µM
LPS-induced microglial activation ([1]; dose-dependent, FIG. 6a): inhibited
disease onset and severity (adoptive transfer EAE): delayed
GGT activity in SN after LPS injection (GGT): blocked
serum protein carbonyl content [2]: markedly reduced
demyelination (MBP) (chronic NOD MOG35-55 EAE; chronic phase, FIG. 8c): reduced
NADPH oxidase subunit gp91-phox (chronic NOD MOG35-55 EAE; chronic phase, FIG. 8d): reduced
axonal damage (SMI-32) (chronic NOD MOG35-55 EAE; chronic phase, FIG. 8d): reduced
inducible nitric oxide synthase (iNOS) (chronic NOD MOG35-55 EAE; chronic phase, FIG. 8d): reduced
expression of GGT1 (chronic NOD MOG35-55 EAE; mouse, in vivo): reduced
demyelination (MBP) (MOG35-55 EAE; FIG. 7i): markedly reduced
neuronal damage (SMI-32) (MOG35-55 EAE; FIG. 7i): markedly reduced
microglia activation (CX3CR1+ cells) (MOG35-55 EAE; FIG. 7j): markedly reduced
monocyte/macrophage infiltration (CCR2+ cells) (MOG35-55 EAE; FIG. 7j): markedly reduced
4-hydroxynonenal (4-HNE) immunostaining (MOG35-55 EAE; spinal cord, peak disease, FIG. 7f): markedly reduced
microglial activation (Iba-1) ([3]; 7 d after LPS, FIG. 15c): decreased
dopaminergic neuronal survival (TH) ([3]; mouse, in vivo): improved
